Paper PMC9090415, “Discovery of small molecule inhibitors of Plasmodium falciparum apicoplast DNA polymerase” (Journal of Enzyme Inhibition and Medicinal Chemistry, 2022)

Molecular target: P. falciparum apicoplast DNA polymerase (Pf-apPOL) (Plasmodium falciparum, UniProt Q8ILY1)
Assay: Fluorescence-based high-throughput DNA polymerase assay (molecular beacon), primary screen and dose-response;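 on % inhibition ApPOL 90': test concentration in µM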;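 on % inhibition apPOL 180': test concentration in µM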
Type: biochemical
Details: for DNA Pol: unit not given, 90 min, 10 µM
Method in brief: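 Single-point screening used 10 µM compound with 20 nM polymerase, 20 nM hairpin substrate and 6 µM dNTPs for 90 min at 25 °C. Confirmatory titrations (2.5–80 µM) followed fluorescence at three times, and IC50 was derived from a fit including a cooperativity term n.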

Sequence of P. falciparum apicoplast DNA polymerase (Pf-apPOL) (Q8ILY1 entry or part of it): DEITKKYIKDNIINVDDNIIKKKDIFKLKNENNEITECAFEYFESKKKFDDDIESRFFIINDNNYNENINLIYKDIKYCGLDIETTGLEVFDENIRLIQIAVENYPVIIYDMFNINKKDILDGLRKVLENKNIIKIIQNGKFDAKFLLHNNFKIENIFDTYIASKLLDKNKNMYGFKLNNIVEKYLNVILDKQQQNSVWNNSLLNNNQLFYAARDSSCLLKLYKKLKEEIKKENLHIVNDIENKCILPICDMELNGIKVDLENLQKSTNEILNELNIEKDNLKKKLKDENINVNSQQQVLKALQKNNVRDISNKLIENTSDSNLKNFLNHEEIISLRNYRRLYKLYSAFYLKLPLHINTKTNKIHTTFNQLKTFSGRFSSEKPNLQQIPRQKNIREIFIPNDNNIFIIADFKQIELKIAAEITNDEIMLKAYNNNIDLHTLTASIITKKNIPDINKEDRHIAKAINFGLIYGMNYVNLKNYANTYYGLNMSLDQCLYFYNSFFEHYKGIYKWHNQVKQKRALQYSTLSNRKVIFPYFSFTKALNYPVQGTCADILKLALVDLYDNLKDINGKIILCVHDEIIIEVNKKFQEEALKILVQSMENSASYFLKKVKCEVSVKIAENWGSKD

CSC1=C(C#N)C(=C(C#N)C#N)NC(c2ccccc2)=N1 [Molecule 2, CSc1nc([nH]c(=C(C#N)C#N)c1C#N)c1ccccc1]
DNA Pol ('DNA Pol' of the 186 hits list (primary screen result)): 97
% inhibition Apo pol 10' (DRC-1, concentration 2.5): 13.8022%
% inhibition Apo pol 10' (DRC-1, concentration 5): 41.8918%
% inhibition Apo pol 10' (DRC-1, concentration 10): 81.1404%
% inhibition Apo pol 10' (DRC-1, concentration 20): 90.9481%
% inhibition Apo pol 10' (DRC-1, concentration 40): 95.8628%
% inhibition Apo pol 10' (DRC-1, concentration 80): 96.566%
% inhibition Apol 90' (DRC-1, 90', concentration 2.5): 8.793%
% inhibition Apol 90' (DRC-1, 90', concentration 5): 34.1727%
% inhibition Apol 90' (DRC-1, 90', concentration 10): 79.1809%
% inhibition Apol 90' (DRC-1, 90', concentration 20): 88.8682%
% inhibition Apol 90' (DRC-1, 90', concentration 40): 93.6444%
% inhibition Apol 90' (DRC-1, 90', concentration 80): 97.3798%
% inhibition apPOL 180' (DRC-1, 180', concentration 2.5): 3.214%
% inhibition apPOL 180' (DRC-1, 180', concentration 5): 23.1824%
% inhibition apPOL 180' (DRC-1, 180', concentration 10): 72.8695%
% inhibition apPOL 180' (DRC-1, 180', concentration 20): 86.4873%
% inhibition apPOL 180' (DRC-1, 180', concentration 40): 92.4303%
% inhibition apPOL 180' (DRC-1, 180', concentration 80): 97.316%
% inhibition Apo pol 5' (DRC-2, concentration 2.5): 8%
% inhibition Apo pol 5' (DRC-2, concentration 5): 21%
% inhibition Apo pol 5' (DRC-2, concentration 10): 38%
% inhibition Apo pol 5' (DRC-2, concentration 20): 53%
% inhibition Apo pol 5' (DRC-2, concentration 40): 57%
% inhibition Apo pol 5' (DRC-2, concentration 80): 60%
% inhibition Apol 40' (DRC-2, 40', concentration 5): 25%
% inhibition Apol 40' (DRC-2, 40', concentration 10): 47%
% inhibition Apol 40' (DRC-2, 40', concentration 20): 65%
% inhibition Apol 40' (DRC-2, 40', concentration 40): 69%
% inhibition Apol 40' (DRC-2, 40', concentration 80): 76%
% inhibition ApPOL 90' (DRC-2, 90', concentration 2.5): 9%
% inhibition ApPOL 90' (DRC-2, 90', concentration 5): 22%
% inhibition ApPOL 90' (DRC-2, 90', concentration 10): 46%
% inhibition ApPOL 90' (DRC-2, 90', concentration 20): 66%
% inhibition ApPOL 90' (DRC-2, 90', concentration 40): 70%
% inhibition ApPOL 90' (DRC-2, 90', concentration 80): 79%
% inhibition apPOL 180' (DRC-2, 180', concentration 2.5): 2.48%
% inhibition apPOL 180' (DRC-2, 180', concentration 5): 13%
% inhibition apPOL 180' (DRC-2, 180', concentration 10): 36%
% inhibition apPOL 180' (DRC-2, 180', concentration 20): 61%
% inhibition apPOL 180' (DRC-2, 180', concentration 40): 67%
% inhibition apPOL 180' (DRC-2, 180', concentration 80): 80%
DNA Pol (primary screen value of the library well): 97

Cc1ccc(NC(=O)Cn2ccc3c(=O)[nH]ccc32)cc1F [Molecule 48]
IC50 (supplemental file 2, sheet IC50 nontoxic compounds, Pf-apPOL): 15.3 µM

Cc1ccc(CCNC(=O)c2cnn3c(O)c(Cc4ccccc4F)c(C)nc23)cc1 [KU0097142]
% inhibition Apo pol 10' (DRC-1, concentration 2.5): -13.7377%
% inhibition Apo pol 10' (DRC-1, concentration 5): -17.1874%
% inhibition Apo pol 10' (DRC-1, concentration 10): -18.6102%
% inhibition Apo pol 10' (DRC-1, concentration 20): 32.4745%
% inhibition Apo pol 10' (DRC-1, concentration 40): 80.8586%
% inhibition Apo pol 10' (DRC-1, concentration 80): 88.0629%
% inhibition Apol 90' (DRC-1, 90', concentration 2.5): -9.394%
% inhibition Apol 90' (DRC-1, 90', concentration 5): -5.811%
% inhibition Apol 90' (DRC-1, 90', concentration 10): -11.7224%
% inhibition Apol 90' (DRC-1, 90', concentration 20): 36.3215%
% inhibition Apol 90' (DRC-1, 90', concentration 40): 78.277%
% inhibition Apol 90' (DRC-1, 90', concentration 80): 85.9002%
% inhibition apPOL 180' (DRC-1, 180', concentration 2.5): -10.2215%
% inhibition apPOL 180' (DRC-1, 180', concentration 5): -8.372%
% inhibition apPOL 180' (DRC-1, 180', concentration 10): -12.5375%
% inhibition apPOL 180' (DRC-1, 180', concentration 20): 23.0268%
% inhibition apPOL 180' (DRC-1, 180', concentration 40): 70.309%
% inhibition apPOL 180' (DRC-1, 180', concentration 80): 81.7781%
% inhibition Apol 40' (DRC-2, 40', concentration 5 (unit not given)): 17%
% inhibition Apol 40' (DRC-2, 40', concentration 40 (unit not given)): 67%
% inhibition ApPOL 90' (DRC-2, 90', concentration 5 (unit not given)): 17%
% inhibition ApPOL 90' (DRC-2, 90', concentration 40 (unit not given)): 67%
% inhibition apPOL 180' (DRC-2, 180', concentration 40 (unit not given)): 62%
% inhibition Apo pol 5' (DRC-2, concentration 2.5): -3.79%
% inhibition Apo pol 5' (DRC-2, concentration 5): 11%
% inhibition Apo pol 5' (DRC-2, concentration 10): 15%
% inhibition Apo pol 5' (DRC-2, concentration 20): 45%
% inhibition Apo pol 5' (DRC-2, concentration 40): 57%
% inhibition Apo pol 5' (DRC-2, concentration 80): 62%
% inhibition Apo pol 5' (DRC-2, concentration 80 (unit not given)): 62%
% inhibition Apol 40' (DRC-2, 40', concentration 2.5): -0.896%
% inhibition Apol 40' (DRC-2, 40', concentration 5): 17%
% inhibition Apol 40' (DRC-2, 40', concentration 10): 21%
% inhibition Apol 40' (DRC-2, 40', concentration 20): 54%
% inhibition Apol 40' (DRC-2, 40', concentration 40): 67%
% inhibition Apol 40' (DRC-2, 40', concentration 80): 71%
% inhibition ApPOL 90' (DRC-2, 90', concentration 2.5): -1.26%
% inhibition ApPOL 90' (DRC-2, 90', concentration 5): 17%
% inhibition ApPOL 90' (DRC-2, 90', concentration 10): 19%
% inhibition ApPOL 90' (DRC-2, 90', concentration 20): 52%
% inhibition ApPOL 90' (DRC-2, 90', concentration 40): 67%
% inhibition ApPOL 90' (DRC-2, 90', concentration 80): 72%
% inhibition apPOL 180' (DRC-2, 180', concentration 2.5): -2.35%
% inhibition apPOL 180' (DRC-2, 180', concentration 5): 12%
% inhibition apPOL 180' (DRC-2, 180', concentration 10): 13%
% inhibition apPOL 180' (DRC-2, 180', concentration 20): 43%
% inhibition apPOL 180' (DRC-2, 180', concentration 40): 62%
% inhibition apPOL 180' (DRC-2, 180', concentration 80): 69%
DNA Pol (primary screen value of the 186 hits): 48
DNA Pol (primary screen value, head "DNA Pol"): 48
